The results in this text go back to ChEMBL document CHEMBL1268905, “3D-QSAR and docking studies on pyrazolo[4,3-h]qinazoline-3-carboxamides as cyclin-dependent kinase 2 (CDK2) inhibitors” (Bioorg Med Chem Lett, 2010).

The assay has as its target Cyclin-dependent kinase 2/cyclin A (Homo sapiens, UniProt P24941). As to the kind of experiment: Inhibition of CDK2/cyclin A. The assay is classed as protein-complex assay.

As usually defined, the IC50 is the point on the concentration scale where inhibition reaches its midpoint. Take `CNC(=O)c1cn(C)c2c1C(C)(C)Cc1cnc(Nc3cccc(N4CCOCC4)c3)nc1-2`: inhibition was half-maximal at 248 nM (IC50).
`Cn1cc(C(=O)NCc2ccccc2)c2c1-c1nc(Nc3ccccc3)ncc1CC2` gave a half-inhibitory concentration (IC50) of 1050 nM.
Under `NC(=O)c1cn(-c2ccccc2)c2c1CCc1cnc(NC3CCCC3)nc1-2` stands 20 nM.
`CNC(=O)c1cn(C)c2c1C(C)(C)Cc1cnc(Nc3cccc(CN4CCOCC4)c3)nc1-2` had an IC50 of 160 nM.
Under `CN1CCN(c2ccc(CNc3ncc4c(n3)-c3c(c(C(N)=O)cn3C)CC4)cc2)CC1` stands 17 nM.
For `Cn1cc(C(N)=O)c2c1-c1nc(NCc3ccncc3)ncc1CC2` the value was 21 nM.
Under `Cn1cc(C(N)=O)c2c1-c1nc(NCCO)ncc1CC2` stands 19 nM; under `Cn1cc(C(N)=O)c2c1-c1nc(Nc3ccc(N4CCOCC4)cc3)ncc1CC2`, 14 nM.
`CC(=O)Nc1ccc(CNc2ncc3c(n2)-c2c(c(C(N)=O)cn2C)CC3)cc1` had an IC50 of 13 nM.
Under `Cn1cc(C(N)=O)c2c1-c1nc(NC3CCN(C(=O)c4ccccc4)CC3)ncc1CC2` stands 3 nM.
For `Cn1cc(C(=O)N(O)Cc2ccccc2)c2c1-c1nc(NC3CCCC3)ncc1CC2` the value was 1370 nM; for `CN1CCN(c2cccc(CNc3ncc4c(n3)-c3c(c(C(N)=O)cn3C)CC4)c2)CC1`, 104 nM.
Consider `CNC(=O)c1cn(C)c2c1C(C)(C)Cc1cnc(Nc3ccc(CN4CCN(C)CC4)cc3)nc1-2`, for which the midpoint of inhibition, the IC50, lay at 55 nM.
Under `Cn1cc(C(N)=O)c2c1-c1nc(NCc3ccccn3)ncc1CC2` stands 86.9 nM; under `Cn1cc(C(=O)NCCO)c2c1-c1nc(Nc3ccccc3)ncc1CC2`, 74 nM.
Under `CN1CCN(c2ccc(Nc3ncc4c(n3)-c3c(c(C(N)=O)cn3C)CC4)cc2)CC1` stands 2 nM; under `CNC(=O)c1cn(C)c2c1C(C)(C)Cc1cnc(Nc3cccc(CN4CCN(C)CC4)c3)nc1-2`, 59 nM; under `CNC(=O)c1cn(C)c2c1C(C)(C)Cc1cnc(Nc3ccc(CN(C)C)cc3)nc1-2`, 35 nM.
For `CCOC(=O)N1CCC(Nc2ncc3c(n2)-c2c(c(C(N)=O)cn2C)CC3)CC1` the value was 1 nM.
`CN1CCC(n2cc(C(N)=O)c3c2-c2nc(NC4CCCC4)ncc2CC3)CC1` showed a concentration for half-maximal inhibition (IC50) of 6 nM.
Under `NC(=O)c1cn(-c2ccccn2)c2c1CCc1cnc(NC3CCCC3)nc1-2` stands 52 nM; under `COc1ccc(CNc2ncc3c(n2)-c2c(c(C(N)=O)cn2C)CC3)cc1`, 57.9 nM.
For `CNC(=O)c1cn(C)c2c1C(C)(C)Cc1cnc(Nc3cccc(N(C)C)c3)nc1-2`, it took 220 nM to reach half-maximal inhibition (IC50).
Under `Cn1cc(C(N)=O)c2c1-c1nc(NC3CCN(S(=O)(=O)c4ccccc4)CC3)ncc1CC2` stands 4 nM.
Under `NC(=O)c1cn(-c2ccc(S(N)(=O)=O)cc2)c2c1CCc1cnc(NC3CCCC3)nc1-2` stands 5 nM; under `COc1ccc(-n2cc(C(N)=O)c3c2-c2nc(NC4CCCC4)ncc2CC3)cc1`, 6 nM; under `CNC(=O)c1cn(C)c2c1C(C)(C)Cc1cnc(Nc3ccc(N(C)C)cc3)nc1-2`, 59 nM.
Under `NC(=O)c1cn(Cc2ccccc2)c2c1CCc1cnc(NC3CCCC3)nc1-2` stands 23 nM; under `CC(CN(C)C)NC(=O)c1cn(C)c2c1CCc1cnc(NC3CCCC3)nc1-2` (centres undefined), 1760 nM.
Turning to `CNC(=O)c1cn(C)c2c1C(C)(C)Cc1cnc(Nc3cccc(N4CCN(C)CC4)c3)nc1-2`, the IC50 was 31 nM.
Under `CCN1CCC(Nc2ncc3c(n2)-c2c(c(C(N)=O)cn2C)CC3)CC1` stands 149 nM.
For `CNC(=O)c1cn(C)c2c1CCc1cnc(NC3CCN(C(=O)c4ccccc4)CC3)nc1-2` the value was 25 nM; for `CNC(=O)c1cn(C)c2c1CCc1cnc(NC3CCN(C)CC3)nc1-2`, 4580 nM.
For `Cn1cc(C(N)=O)c2c1-c1nc(NCc3cccnc3)ncc1CC2` the value was 21 nM; for `CN(O)C(=O)c1cn(C)c2c1CCc1cnc(NC3CCCC3)nc1-2`, 175 nM; for `CNC(=O)c1cn(C)c2c1CCc1cnc(NC3CCN(S(=O)(=O)c4ccccc4)CC3)nc1-2`, 5 nM.
In turn, `CN1CCN(c2cccc(Nc3ncc4c(n3)-c3c(c(C(N)=O)cn3C)CC4)c2)CC1` gave an IC50 of 1 nM.
For `NC(=O)c1cn(CC(F)(F)F)c2c1CCc1cnc(NC3CCCC3)nc1-2` the value was 5 nM.
For `Cn1cc(C(N)=O)c2c1-c1nc(NCCN3CCOCC3)ncc1CC2` the value was 209 nM.
Under `CCOC(=O)N1CCC(Nc2ncc3c(n2)-c2c(c(C(=O)NC)cn2C)CC3)CC1` stands 57.9 nM.
In turn, `NC(=O)c1cn(CCO)c2c1CCc1cnc(NC3CCCC3)nc1-2` gave a half-maximal inhibitory concentration (IC50) of 8 nM.
Under `CC(=O)N1CCC(n2cc(C(N)=O)c3c2-c2nc(NC4CCCC4)ncc2CC3)CC1` stands 7 nM; under `CNC(=O)c1cn(C)c2c1C(C)(C)Cc1cnc(Nc3ccc(OC4CCN(C)CC4)cc3)nc1-2`, 29 nM.
Compound `CNC(=O)c1cn(C)c2c1CCc1cnc(NC3CCCC3)nc1-2` showed a half-inhibitory concentration (IC50) of 97.1 nM.
For the compound `Cn1cc(C(N)=O)c2c1-c1nc(NC3CCN(S(C)(=O)=O)CC3)ncc1CC2`, the half-maximal inhibitory concentration (IC50) is 1 nM.
For the compound `Cn1cc(C(N)=O)c2c1-c1nc(NCc3ccc(S(C)(=O)=O)cc3)ncc1CC2`, half-maximal inhibition (IC50) was put at 38 nM.
Under `CNC(=O)c1cn(C)c2c1C(C)(C)Cc1cnc(Nc3cccc(OC4CCN(C)CC4)c3)nc1-2` stands 47 nM; under `CNC(=O)c1cn(C)c2c1C(C)(C)Cc1cnc(Nc3ccc(CN4CCOCC4)cc3)nc1-2`, 36 nM; under `CNC(=O)c1cn(C)c2c1CCc1cnc(NC3CCN(C(C)=O)CC3)nc1-2`, 32 nM.
Under `CNC(=O)c1cn(C2CCN(C)CC2)c2c1CCc1cnc(NC3CCCC3)nc1-2` stands 59 nM; under `CN1CCN(c2ccc(Nc3ncc4c(n3)-c3c(c(C(N)=O)cn3C)C(C)(C)C4)cc2)CC1`, 17 nM.
Under `Cn1cc(C(N)=O)c2c1-c1nc(NCc3ccc(Br)cc3)ncc1CC2` stands 80.9 nM; under `Cn1cc(C(N)=O)c2c1-c1nc(NCc3ccccc3)ncc1CC2`, 51.1 nM; under `Cn1cc(C(N)=O)c2c1-c1nc(Nc3ccccc3)ncc1CC2(C)C`, 24 nM.
Consider `CNC(=O)c1cn(C)c2c1C(C)(C)Cc1cnc(Nc3cccc(CN(C)C)c3)nc1-2`, for which the half-inhibitory concentration (IC50) was 83 nM.
Turning to `CNC(=O)c1cn(C)c2c1C(C)(C)Cc1cnc(Nc3ccc(N4CCOCC4)cc3)nc1-2`, the IC50 is 137 nM.
In turn, `CNC(=O)c1cn(C)c2c1CCc1cnc(NC3CCN(C(=O)N4CCN(C)CC4)CC3)nc1-2` had a 50% inhibitory concentration (IC50) of 1120 nM.
Under `CN1CCN(C(=O)N2CCC(Nc3ncc4c(n3)-c3c(c(C(N)=O)cn3C)CC4)CC2)CC1` stands 12 nM.
Under `COc1cccc(CNc2ncc3c(n2)-c2c(c(C(N)=O)cn2C)CC3)c1` stands 65.9 nM.
